# Data reported in publication PMC9680032, “Conformationally Locked Carbocyclic Nucleosides Built on a 4′-Hydroxymethyl-3′-hydroxybicyclo[4.1.0]heptane Template. Stereoselective Synthesis and Antiviral Activity” (The Journal of Organic Chemistry, 2022).
# Columns and labels:
# [1] = tested on: Herpes simplex virus-1 (KOS); test: microbe, parasite or virus in culture; type: cell-based; conditions: for EC50: Human alphaherpesvirus 1, HEL, read-out: Antiviral EC50 Herpes simplex virus-1 (KOS)
# [2] = tested on: Herpes simplex virus-2 (G); test: microbe, parasite or virus in culture; type: cell-based; conditions: for EC50: Human alphaherpesvirus 2, HEL, read-out: Antiviral EC50 Herpes simplex virus-2 (G)
# Vaccinia virus = test: microbe, parasite or virus in culture; type: cell-based; conditions: for EC50: Orthopoxvirus vaccinia, HEL, read-out: Antiviral EC50 Vaccinia virus
# Adeno virus-2 = test: organism not typed; type: cell-based; conditions: for EC50: HEL, read-out: Antiviral EC50 Adeno virus-2
# Human Coronavirus (229E) = test: microbe, parasite or virus in culture; type: cell-based; conditions: for EC50: Human coronavirus 229E, HEL, read-out: Antiviral EC50 Human Coronavirus (229E)
# [3] = tested on: Vesicular stomatitis virus; test: microbe, parasite or virus in culture; type: cell-based; conditions: for EC50: Vesicular stomatitis virus, HEp-2, read-out: Antiviral EC50 Vesicular stomatitis virus
# Coxsackie virus B4 [4] = test: Antiviral CPE assay, Coxsackie virus B4 in HEp-2 cells; type: cell-based; conditions: for EC50: Enterovirus B, B4, HEp-2
# [5] = tested on: Respiratory syncytial virus; test: Antiviral CPE assay, Respiratory syncytial virus in HEp-2 cells; type: cell-based; conditions: for EC50: human respiratory syncytial virus, HEp-2
# [6] = Cytotoxicity in Vero cell cultures (MTS); type: cell-based, African green monkey; conditions: African green monkey, Vero cells (kidney epithelial cells), uninfected, MTS assay, read-out: Cytotoxixity CC50
# Reo-virus-1 = test: Antiviral CPE assay, Reovirus-1 in Vero cells; type: cell-based; conditions: for EC50: Vero
# Sindbis virus = test: Antiviral CPE assay, Sindbis virus in Vero cells; type: cell-based; conditions: for EC50: Sindbis virus, Vero
# Coxsackie virus B4 [7] = test: Antiviral CPE assay, Coxsackie virus B4 in Vero cells; type: cell-based; conditions: for EC50: Enterovirus B, B4, Vero
# Punta Toro virus = test: Antiviral CPE assay, Punta Toro virus in Vero cells; type: cell-based; conditions: for EC50: Punta Toro virus, Vero
# Yellow Fever virus = test: microbe, parasite or virus in culture; type: cell-based; conditions: for EC50: Yellow fever virus, Vero, read-out: Antiviral EC50 Yellow Fever virus, Vero cell cultures
# Zika virus = test: Antiviral CPE assay, Zika virus in Vero cells; type: cell-based; conditions: for EC50: Zika virus, Vero
# [8] = tested on: Influenza A virus A/Ned/378/05A (H1N1); test: Antiviral CPE assay, Influenza A (H1N1) in MDCK cells; type: cell-based; conditions: for EC50: Influenza A virus, H1N1, MDCK
# [9] = tested on: Influenza A virus A/HK/7/87 (H3N2); test: Antiviral CPE assay, Influenza A (H3N2) in MDCK cells; type: cell-based; conditions: for EC50: Influenza A virus, H3N2, MDCK
# [10] = tested on: Influenza B virus B/Ned/537/05; test: Antiviral CPE assay, Influenza B in MDCK cells; type: cell-based; conditions: MDCK cell cultures; for EC50: Influenza B virus
# [11] = tested on: Human immunodeficiency virus (IIIB); test: Antiviral CPE assay, HIV-1 (IIIB) in MT-4 cells; type: cell-based, human immunodeficiency virus type 1 (HIV-1); conditions: for EC50: Human immunodeficiency virus 1, IIIB, MT4
# [12] = tested on: Human immunodeficiency virus (ROD); test: Antiviral CPE assay, HIV-2 (ROD) in MT-4 cells; type: cell-based; conditions: for EC50: Human immunodeficiency virus 2, MT4
# in vitro [13] = conditions: dog
# [14] = Cytotoxicity in MT-4 cell cultures (MTS); conditions: human, Cytotoxixity CC50, MT-4 cell cultures, MTS assay
# [15] = Cytotoxicity in HEp-2 cell cultures (MTS); conditions: human
# Vero cells = test: Cytotoxicity in Vero cell cultures (MTS); type: cell-based, African green monkey; conditions: MTS assay
# HEL cells = conditions: human
# [16] = tested on: MDCK (Madin-Darby Canine Kidney) cells; conditions: dog
# [17] = tested on: MT-4 cells (human lymphocytic cell line); test: Cytotoxicity in MT-4 cell cultures (MTS); conditions: MT-4 cell cultures, MTS assay
# [18] = tested on: HEp-2 (Human Epidermoid carcicoma) cells; test: Cytotoxicity in HEp-2 cell cultures (MTS); conditions: HEp-2 cell cultures, MTS assay
# in vitro [19] = conditions: human, Cytotoxixity CC50
smiles,measurement,setting,value
"Cc1cn(C2CC(O)C(CO)C3CC32)c(=O)[nH]c1=O (stereo not drawn) [Compound 1a, 1-((1′S,2′S,4′R,5′R,6′R)-4′-Hydroxy-5′-(hydroxymethyl)bicyclo[4.1.0]heptan-2′-yl)-5-methylpyrimidine-2,4(1H,3H)-dione]",EC50,[1],> 50 µg/mL
same,EC50,[2],> 50 µg/mL
same,EC50,Vaccinia virus,> 50 µg/mL
same,EC50,Adeno virus-2,> 50 µg/mL
same,EC50,Human Coronavirus (229E),> 50 µg/mL
same,EC50,[3],> 50 µg/mL
same,EC50,Coxsackie virus B4 [4],> 50 µg/mL
same,EC50,[5],> 50 µg/mL
same,CC50,[6],> 50 µg/mL
same,EC50,Reo-virus-1,> 50 µg/mL
same,EC50,Sindbis virus,> 50 µg/mL
same,EC50,Coxsackie virus B4 [7],> 50 µg/mL
same,EC50,Punta Toro virus,> 50 µg/mL
same,EC50,Yellow Fever virus,> 50 µg/mL
same,EC50,Zika virus,> 50 µg/mL
same,EC50,[8],> 50 µg/mL
same,EC50,[9],> 50 µg/mL
same,EC50,[10],> 50 µg/mL
same,EC50,[11],> 99.1 µg/mL
same,EC50,[12],> 99.1 µg/mL
same,melting point,,189 to 191 °C
same,CC50,in vitro [13],> 50 µg/mL
same,CC50,[14],99.1 µg/mL
same,CC50,[15],> 50 µg/mL
"Cc1cn(C2CC(O)C(CO)C3CC32)c(=O)[nH]c1=O (stereo not drawn) [Compound 2, 1-[(1′S,2′S,4′S,5′R,6′R)-4′-Hydroxy-5′-(hydroxymethyl)bicyclo[4.1.0]hept-2′-yl]-5-methylpyrimidine-2,4(1H,3H)-dione]",Antiviral EC50 Herpes simplex virus-1 (KOS),[1],> 50 µg/mL
same,Antiviral EC50 Herpes simplex virus-2 (G),[2],> 50 µg/mL
same,Antiviral EC50 Vaccinia virus,Vaccinia virus; HEL cell cultures,> 50 µg/mL
same,Antiviral EC50 Adeno virus-2,Adeno virus-2,> 50 µg/mL
same,Antiviral EC50 Human Coronavirus (229E),Human Coronavirus (229E),> 50 µg/mL
same,Antiviral EC50 Vesicular stomatitis virus,[3]; HEp-2 cell cultures,> 50 µg/mL
same,Antiviral EC50 Coxsackie virus B4,Coxsackie virus B4 [4],> 50 µg/mL
same,Antiviral EC50 Respiratory syncytial virus,[5],> 50 µg/mL
same,Cytotoxixity CC50,Vero cells,> 50 µg/mL
same,Antiviral EC50 Reo-virus-1,Reo-virus-1,> 50 µg/mL
same,Antiviral EC50 Sindbis virus,Sindbis virus,> 50 µg/mL
same,Antiviral EC50 Coxsackie virus B4,Coxsackie virus B4 [7],> 50 µg/mL
same,Antiviral EC50 Punta Toro virus,Punta Toro virus,> 50 µg/mL
same,Antiviral EC50 Yellow Fever virus,Yellow Fever virus; Vero cell cultures,> 50 µg/mL
same,Antiviral EC50 Zika virus,Zika virus,> 50 µg/mL
same,Antiviral EC50 Influenza A virus A/Ned/378/05 (H1N1),[8],> 50 µg/mL
same,Antiviral EC50 Influenza A virus A/HK/7/87 (H3N2),[9],> 50 µg/mL
same,Antiviral EC50 Influenza B virus B/Ned/537/05,[10],> 50 µg/mL
same,Antiviral EC50 Human immunodeficiency virus (IIIB),[11],> 125 µg/mL
same,Antiviral EC50 Human immunodeficiency virus (ROD),[12],> 125 µg/mL
same,Cytotoxixity CC50,HEL cells,> 50 µg/mL
same,Cytotoxixity CC50,[16],> 50 µg/mL
same,Cytotoxixity CC50,[17],> 125 µg/mL
same,Cytotoxixity CC50,[18],> 50 µg/mL
"NC(=O)c1nnn(C2CC(O)C(CO)C3CC32)c1N (stereo not drawn) [Compound 3b, 5-Amino-1-[(1′S,2′S,4′R,5′R,6′R)-4′-hydroxy-5′-(hydroxymethyl)bicyclo-[4.1.0]hept-2′-yl]-1H-1,2,3-triazole-4-carboxamide]",EC50,[1],> 50 µg/mL
same,EC50,[2],> 50 µg/mL
same,EC50,Vaccinia virus,> 50 µg/mL
same,EC50,Adeno virus-2,> 50 µg/mL
same,EC50,Human Coronavirus (229E),> 50 µg/mL
same,EC50,[3],> 50 µg/mL
same,EC50,Coxsackie virus B4 [4],> 50 µg/mL
same,EC50,[5],> 50 µg/mL
same,CC50,[6],> 50 µg/mL
same,EC50,Reo-virus-1,> 50 µg/mL
same,EC50,Sindbis virus,> 50 µg/mL
same,EC50,Coxsackie virus B4 [7],> 50 µg/mL
same,EC50,Punta Toro virus,> 50 µg/mL
same,EC50,Yellow Fever virus,> 50 µg/mL
same,EC50,Zika virus,> 50 µg/mL
same,EC50,[8],> 50 µg/mL
same,EC50,[9],> 50 µg/mL
same,EC50,[10],> 50 µg/mL
same,EC50,[11],> 125 µg/mL
same,EC50,[12],> 125 µg/mL
same,melting point,,210 to 213 °C
same,CC50,in vitro [13],> 50 µg/mL
same,CC50,[14],> 125 µg/mL
same,CC50,[15],> 50 µg/mL
"Nc1ccn([C@@H]2CS[C@H](CO)O2)c(=O)n1 [Lamivudine, reference compound]",EC50,[11],0.58 µg/mL
same,EC50,[12],2.27 µg/mL
same,CC50,in vitro [19],> 20 µg/mL
"Cc1ccnc2c1NC(=O)c1cccnc1N2C1CC1 [Neviparine, reference compound]",Antiviral EC50 Human immunodeficiency virus (IIIB),[11],0.075 µg/mL
same,Antiviral EC50 Human immunodeficiency virus (ROD),[12],> 4 µg/mL
same,Cytotoxixity CC50,[17],> 4 µg/mL
